In patent US8604053B2, “TRPV1 antagonists” (AbbVie Inc., priority 2008, dated 2013):

What was measured:
CYP2C9 = molecular target: T1, CYP2C9 (Homo sapiens, UniProt P11712); test: CYP2C9 inhibition assay; type: in vitro ADME; conditions: human liver microsomes, substrate Luciferin-H; for inhibition at 25 min, 2.2 µM: pH 7.4, probe Luciferin-H (100 μM final), read-out: CYP2C9 % inh @ 2.2 μM
T1 construct: human liver microsomes (BD Gentest); tissue BD Gentest; host or cells: human liver microsomes
T1 sequence (P11712 whole entry): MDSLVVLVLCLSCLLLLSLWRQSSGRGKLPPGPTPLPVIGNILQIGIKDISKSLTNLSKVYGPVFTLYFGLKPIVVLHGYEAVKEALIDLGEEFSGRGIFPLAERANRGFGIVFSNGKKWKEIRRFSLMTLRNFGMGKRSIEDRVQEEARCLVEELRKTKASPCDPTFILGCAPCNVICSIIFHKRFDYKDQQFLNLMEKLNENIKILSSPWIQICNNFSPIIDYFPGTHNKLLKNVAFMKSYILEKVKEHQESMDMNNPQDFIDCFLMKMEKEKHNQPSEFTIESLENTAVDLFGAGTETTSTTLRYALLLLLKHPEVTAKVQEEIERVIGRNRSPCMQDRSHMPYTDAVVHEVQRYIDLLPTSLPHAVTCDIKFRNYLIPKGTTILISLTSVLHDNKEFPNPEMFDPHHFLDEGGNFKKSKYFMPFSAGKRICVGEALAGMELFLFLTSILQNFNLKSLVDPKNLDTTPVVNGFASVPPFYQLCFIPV
Description: (§1) Stock solutions of test compounds were assayed in 96-well format for their ability to inhibit CYP2C9, CYP2D6, or CYP3A4 mediated metabolism of test substrates. Luciferin-H was used as the substrate for CYP2C9; 3-[2-(N,N-diethyl-N-methylammonium)ethyl]-7-methoxy-4-methylcoumarin (AMMC) was used as the substrate for CYP2D6; 7-benzyloxyquiniline (BZQ) was used as the substrate for CYP3A4. For each subtype, positive controls (sulphaphenazole in the case of CYP2C9; quinidine in the case of CYP2D6, ketoconazole in the case of CYP3A4) were used to validate assay results run in duplicate.
(§2) Pre-Incubation Mixture Preparation for CYP2C9 and CYP2D6: A pre-incubation mixture was prepared by combining 100 mM phosphate buffer (9.12 mL; pH 7.4), human liver microsomes (BD Gentest, 240 itt; final concentration: 0.4 mg/mL), and 10 mM nicotinamide adenine dinucleotide phosphate in 65.4 mM MgCl2 hexahydrate (120 μL; final concentration: 125 μM and 818 μM, respectively). To this was mixture is added a ‘regeneration’ mixture (120 μL) of 333 mM glucose-6-phosphate and 40 U/mL glucose-6-phosphate dehydrogenase in 5 mM sodium citrate (final concentration: 4 mM, 0.5 U/mL, and 0.06 mM, respectively).
Substrate Mixture Preparation for CYP2C9: To a solution of 25 mM phosphate buffer, (2.16 mL, pH 7.4) was added 5 mM Luciferin-H (Promega P450 Glo Assay V8792, 240 μL; final solution concentration 0.5 mM, final assay concentration 100 μM).
CYP2C9 Inhibiton Assay: To each well in the assay plate containing varying concentrations of test compound or control compound in DMSO (10 μL) Pre-Incubation Mixture (40 itt) was added to the wells and the assay plate was pre-incubated for 10 minutes at 37° C., with shaking or rocking. CYP2C9 Substrate Mixture (10 μL) was added to all wells and the assay plate was incubated for an additional 25 minutes at 37° C., with shaking or rocking. Final DMSO concentration was 1%. Luciferin-H detection reagent (Promega kit V8792, 50 μL) was added to all wells. The plate was then vortexed at ambient temperature for between 20 minutes and 2 hours, and the luminescence of each well was then read and recorded.

CYP3A4 = molecular target: T2, CYP3A4 (Homo sapiens, UniProt P08684); test: CYP3A4 inhibition assay; type: in vitro ADME; conditions: human liver microsomes, substrate BZQ; for inhibition at 25 min, 2.2 µM: pH 7.4, probe 7-benzyloxyquiniline (BZQ), 50 μM final, read-out: CYP3A4 % inh @ 2.2 μM
T2 construct: human liver microsomes (BD Gentest, 450 μL; final concentration: 0.4 mg/mL); tissue BD Gentest; host or cells: human liver microsomes
T2 sequence (P08684 whole entry): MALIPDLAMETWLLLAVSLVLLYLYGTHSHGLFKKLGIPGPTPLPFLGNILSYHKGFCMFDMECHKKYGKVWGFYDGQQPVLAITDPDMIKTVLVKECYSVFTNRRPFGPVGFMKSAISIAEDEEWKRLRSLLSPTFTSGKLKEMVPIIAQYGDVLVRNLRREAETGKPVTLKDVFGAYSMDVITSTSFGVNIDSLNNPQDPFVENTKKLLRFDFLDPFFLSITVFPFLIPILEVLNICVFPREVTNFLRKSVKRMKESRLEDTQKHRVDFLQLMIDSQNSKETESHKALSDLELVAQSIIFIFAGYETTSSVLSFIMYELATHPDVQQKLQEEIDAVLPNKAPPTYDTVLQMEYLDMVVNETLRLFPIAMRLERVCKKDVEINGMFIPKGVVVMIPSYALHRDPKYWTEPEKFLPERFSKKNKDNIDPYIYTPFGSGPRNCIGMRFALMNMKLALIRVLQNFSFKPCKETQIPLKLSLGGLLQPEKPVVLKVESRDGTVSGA
Description: Luciferin-H was used as the substrate for CYP2C9; 3-[2-(N,N-diethyl-N-methylammonium)ethyl]-7-methoxy-4-methylcoumarin (AMMC) was used as the substrate for CYP2D6; 7-benzyloxyquiniline (BZQ) was used as the substrate for CYP3A4.
Pre-Incubation Mixture Preparation for CYP3A4: A pre-incubation mixture was prepared by combining 100 mM phosphate buffer (19.35 mL; pH 7.4), human liver microsomes (BD Gentest, 450 μL; final concentration: 0.4 mg/mL), and 10 mM nicotinamide adenine dinucleotide phosphate in 65.4 mM MgCl2 hexahydrate (225 μL; final concentration: 100 μM and 654 μM, respectively). To this was mixture was added a ‘regeneration’ mixture (225 μL) of 333 mM glucose-6-phosphate and 40 U/mL glucose-6-phosphate dehydrogenase in 5 mM sodium citrate (final concentration: 3.3 mM, 0.4 U/mL, and 0.05 mM, respectively).
Substrate Mixture Preparation for CYP3A4: To a solution of 100 mM phosphate buffer, (2.36 mL, pH 7.4) was added 30 mM BZQ in acetonitrile (40 μL; final solution concentration 0.5 mM, final assay concentration 50 μM).
(§3) CYP3A4 Inhibiton Assay: To each well in the assay plate containing varying concentrations of test compound or control compound in DMSO (10 μL), CYP3A4 Pre-Incubation Mixture (90 μL) was added to the wells and the assay plate was pre-incubated for 10 minutes at 37° C., with shaking or rocking. A pre-read of each well was performed at 405 nm and 535 nm extinction/emission. CYP3A4 Substrate Mixture (10 μL) was added to all wells and the assay plate was incubated for an additional […] at 37° C., with shaking or rocking. Final DMSO concentration was 1%. A post-read of each well was then performed at 405 nm and 535 nm extinction/emission.

CYP2D6 = molecular target: T3, CYP2D6 (Homo sapiens, UniProt P10635); test: in vitro; type: in vitro ADME; conditions: microsomes; for inhibition at 25 min, 2.2 µM: human, pH 7.4
T3 construct: human liver microsomes (BD Gentest); tissue BD Gentest; host or cells: human liver microsomes
T3 sequence (P10635 whole entry): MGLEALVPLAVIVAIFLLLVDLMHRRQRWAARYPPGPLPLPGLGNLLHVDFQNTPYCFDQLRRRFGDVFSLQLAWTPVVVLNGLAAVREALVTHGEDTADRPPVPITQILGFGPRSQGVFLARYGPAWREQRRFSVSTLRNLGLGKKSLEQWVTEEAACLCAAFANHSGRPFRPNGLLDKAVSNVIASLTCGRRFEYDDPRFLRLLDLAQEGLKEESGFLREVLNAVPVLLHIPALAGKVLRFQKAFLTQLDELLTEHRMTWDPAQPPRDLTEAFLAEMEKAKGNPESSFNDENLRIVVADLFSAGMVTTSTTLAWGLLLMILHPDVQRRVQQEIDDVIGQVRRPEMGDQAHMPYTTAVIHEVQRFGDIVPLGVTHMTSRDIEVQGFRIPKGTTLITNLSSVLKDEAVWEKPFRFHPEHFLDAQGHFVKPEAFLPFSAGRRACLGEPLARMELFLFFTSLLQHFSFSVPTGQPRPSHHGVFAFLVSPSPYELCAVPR
Description: as §1, §2
Substrate Mixture Preparation for CYP2D6: To a solution of 100 mM phosphate buffer, (2.80 mL, pH 7.4) was added 10 mM AMMC in acetonitrile (14 itt; final solution concentration 0.05 mM, final assay concentration 10 μM).
as §3, with “CYP2D6” for “CYP3A4”, “μL),” for “μL), CYP3A4”, “(40” for “(90”, “390” for “405”, “460” for “535”

[1] = Assessment of hemodynamic profile in anesthetized rat; type: in vivo; conditions: i.v. infusion 3, 10 and 30 mg/kg/30 minutes/dose, relative to vehicle control group
Description: Male Sprague-Dawley rats were anesthetized with Inactin, instrumented, and allowed to stabilize. Following a 30 minute baseline period, test compound was infused via intravenous administration at 3, 10, and 30 mg/kg/30 minutes/dose in a low volume PEG-400 vehicle (1 mL/kg) or 20:40:40 dimethylacetamide:propylene glycol:PEG-400 vehicle (1 mL/kg). A separate group of animals received infusion of vehicle alone. Mean arterial pressure (MAP) and heart rate (HR) were observed and recorded.

| inhibition at 25 min, 2.2 µM (CYP2C9) [%] | inhibition at 25 min, 2.2 µM (CYP3A4) [%] | inhibition at 25 min, 2.2 µM (CYP2D6) [%] | CYP2D6 % inh @ 2.2 μM) (CYP2D6) [%] | CYP2C9 % inh @ 2.2 μM (CYP2C9) [%] | CYP3A4 % inh @ 2.2 μM (CYP3A4) [%] | Compound | Change in MAP or HR ≧ 15% ? [1] |
| --- | --- | --- | --- | --- | --- | --- | --- |
| 25 | 0 | 9 | – | – | – | Cc1cc2c(NC(=O)N[C@@H]3CC(CF)(CF)Oc4c(OC(F)(F)F)cccc43)cccc2cn1 [Example 87, N-[(4R)-2,2-bis(fluoromethyl)-8-(trifluoromethoxy)-3,4-dihydro-2H-chromen-4-yl]-N′-(3-methylisoquinolin-5-yl)urea] | – |
| 13 | 3.8 | 19 | – | – | – | Cc1cc2c(NC(=O)N[C@@H]3CC(CF)(CF)Oc4c(Cl)cccc43)cccc2cn1 [Example 91, N-[(4R)-8-chloro-2,2-bis(fluoromethyl)-3,4-dihydro-2H-chromen-4-yl]-N′-(3-methylisoquinolin-5-yl)urea] | – |
| 5.2 | 0 | 16 | – | – | – | Cc1cc2c(NC(=O)N[C@@H]3CC(C)(C)Oc4c(OC(F)(F)F)cccc43)cccc2cn1 [Example 94, N-[(4R)-2,2-dimethyl-8-(trifluoromethoxy)-3,4-dihydro-2H-chromen-4-yl]-N′-(3-methylisoquinolin-5-yl)urea] | – |
| 13 | – | 20 | – | – | – | Cc1cc2c(NC(=O)N[C@@H]3CC(CF)(CF)Oc4cc(Br)ccc43)cccc2cn1 [Example 102, N-[(4R)-7-bromo-2,2-bis(fluoromethyl)-3,4-dihydro-2H-chromen-4-yl]-N′-(3-methylisoquinolin-5-yl)urea] | – |
| 0 | 11 | 0 | – | – | – | Cc1cc2c(NC(=O)N[C@@H]3C[C@](C)(CF)Oc4c(F)cccc43)cccc2cn1 [Example 126, N-[(2R,4R)-8-fluoro-2-(fluoromethyl)-2-methyl-3,4-dihydro-2H-chromen-4-yl]-N′-(3-methylisoquinolin-5-yl)urea] | – |
| 9 | 0 | 0.23 | – | – | – | Cc1cc2c(NC(=O)N[C@@H]3C[C@@](C)(CF)Oc4c(F)cccc43)cccc2cn1 [Example 128, N-[(2S,4R)-8-fluoro-2-(fluoromethyl)-2-methyl-3,4-dihydro-2H-chromen-4-yl]-N′-(3-methylisoquinolin-5-yl)urea] | – |

Continued, compound first:

| Compound | inhibition at 25 min, 2.2 µM (CYP2C9) [%] | inhibition at 25 min, 2.2 µM (CYP3A4) [%] | inhibition at 25 min, 2.2 µM (CYP2D6) [%] | CYP2D6 % inh @ 2.2 μM) (CYP2D6) [%] | CYP2C9 % inh @ 2.2 μM (CYP2C9) [%] | CYP3A4 % inh @ 2.2 μM (CYP3A4) [%] | Change in MAP or HR ≧ 15% ? [1] |
| --- | --- | --- | --- | --- | --- | --- | --- |
| CC1(C)C[C@@H](NC(=O)Nc2cccc3cnccc23)c2ccc(F)cc2O1 [Example 23, N-[(4R)-7-fluoro-2,2-dimethyl-3,4-dihydro-2H-chromen-4-yl]-N′-isoquinolin-5-ylurea] | 56 | 69 | – | – | – | – | – |
| CC1(C)C[C@@H](NC(=O)Nc2cccc3cnccc23)c2ccccc2O1 [Example 27, N-[(4R)-2,2-dimethyl-3,4-dihydro-2H-chromen-4-yl]-N′-isoquinolin-5-ylurea] | 48 | 65 | – | – | – | – | – |
| CC1(C)C[C@@H](NC(=O)Nc2cccc3cnccc23)c2ccc(C(F)(F)F)cc2O1 [Example 34, N-[(4R)-2,2-dimethyl-7-(trifluoromethyl)-3,4-dihydro-2H-chromen-4-yl]-N′-isoquinolin-5-ylurea] | 39 | 36 | 97 | – | – | – | – |
| CCCC1(CCC)C[C@@H](NC(=O)Nc2cccc3cnc(C)cc23)c2cccc(F)c2O1 [Example 68, N-[(4R)-8-fluoro-2,2-dipropyl-3,4-dihydro-2H-chromen-4-yl]-N′-(3-methylisoquinolin-5-yl)urea] | 13 | 6.4 | 0 | – | – | – | – |
| CCC1(CC)C[C@@H](NC(=O)Nc2cccc3cnc(C)cc23)c2ccc(Cl)cc2O1 [Example 69, N-[(4R)-7-chloro-2,2-diethyl-3,4-dihydro-2H-chromen-4-yl]-N′-(3-methylisoquinolin-5-yl)urea] | 5.3 | 0 | 0 | – | – | – | – |
| CCC1(CC)C[C@@H](NC(=O)Nc2cccc3cnc(Cl)cc23)c2cccc(F)c2O1 [Example 81, N-(3-chloroisoquinolin-5-yl)-N′-[(4R)-2,2-diethyl-8-fluoro-3,4-dihydro-2H-chromen-4-yl]urea] | 19 | 0 | 0.68 | – | – | – | – |
| Cc1cc2c(NC(=O)N[C@@H]3CC(CF)(CF)Oc4cc(Cl)ccc43)cccc2cn1 [Example 84, N-[(4R)-7-chloro-2,2-bis(fluoromethyl)-3,4-dihydro-2H-chromen-4-yl]-N′-(3-methylisoquinolin-5-yl)urea] | 3.7 | – | 49 | – | – | – | No (an observed increase or decrease of less than or equal to 15% in MAP (mean arterial pressure) or HR (heart rate) in the test group of animals relative to the vehicle control group is indicated as “No” in the table) |
| Cc1cc2c(NC(=O)N[C@@H]3CC(CF)(CF)Oc4ccccc43)cccc2cn1 [Example 101, N-[(4R)-2,2-bis(fluoromethyl)-3,4-dihydro-2H-chromen-4-yl]-N′-(3-methylisoquinolin-5-yl)urea] | 11 | – | 11 | – | – | – | Yes (An observed increase or decrease of greater than 15% in MAP (mean arterial pressure) or HR (heart rate) in one or more of the animals in the test group relative to the vehicle control group is indicated as “Yes” in the table) |
| N-[(4R)-6,8-difluoro-2,2-dimethyl-3,4-dihydro-2H-chromen-4-yl]-N′-isoquinolin-5-ylurea [Example 17] | – | – | – | 100 | 50 | 63 | – |
| N-[(4R)-7-fluoro-2,2,8-trimethyl-3,4-dihydro-2H-chromen-4-yl]-N-(3-methylisoquinolin-5-yl)urea [Example 111] | – | – | – | 0.87 | 0.36 | 0 | – |
